Experimental data reported in US20150159115A1, “PURIFICATION OF DPA ENRICHED OIL” (Omega Protein Corporation, priority 2013, published 2015).
Entries after “also recorded” stand apart in the source; their conditions may differ. Where two headings read alike, the source gives them in different places.

Legend:
[1] = system: THP-1 cells; test: Cytokine (TNF-α, MCP-1, IL-6) release by LPS-stimulated THP-1 macrophages after fatty acid incubation; format: cell-based; settings: for Release of cytokines (TNF-α, MCP-1, IL-6) by THP-1 macrophages compared to control macrophages: fatty acid 50 and 100 μM 24 h, then LPS 24 h; for Release of cytokines by THP-1 macrophages at increasing fatty acid concentration: highest 100 μM
Procedure: (§1) THP-1 cells were maintained in RPMI 1640+2 mM L-Glutamine, 10 mM HEPES, 1 mM sodium pyruvate, 4500 mg/L glucose, and 1500 mg/L sodium bicarbonate; supplemented with 3.5 μL/L of 2-mercaptoethanol and 10% fetal bovine serum (FBS). Cell line was maintained in 75 cm^2 filtered cap flasks in a 37° C. incubator with 5% CO2. THP-1 cells were seeded in 24 well plates at 5×10^5 cells/mL using 600 μL/well and allowed to differentiate into macrophages (MΦ) for 72 h with phorbol 12-myristate 13-acetate (PMA) at a final concentration of 50 ng/mL.
Experiment 1: Prior to incubation with individual fatty acids, the cells were starved for 8 h in a 2% lipo-free FBS RPMI medium. Individual fatty acids were added in duplicate into the 24 well plate at two concentrations, 50 μM and 100 μM. Every assay was cultured in three runs with duplicates in each run pooled. After incubation for 24 h with fatty acids the MΦ were scraped off the plates and fatty acids were isolated as described in the ‘Animal Tests’ portion of this Example. The fatty acid profiles of the MΦ were determined as previously described (Wang, et al., 2010, Clin. Nutr., DOI: 10.1016/j.clnu.2013.04.009).
(§2) Experiment 2: Previously differentiated MΦ were incubated with fatty acids as described in ‘Experiment 1’ for 24 hours. At the 24 h time point the cells were then stimulated with lipopolysaccharide from E. coli 0111:B4 for another 24 hours. The plates were centrifuged at 1200×g for 5 minutes and supernatant was then collected and analyzed for cytokines. The MΦ were scraped off the plates and fatty acids were isolated as described in the ‘Animal Portion’. The fatty acid profiles of the MΦ were determined as previously described (Wang, et al., 2010, Clin. Nutr., DOI: 10.1016/j.clnu.2013.04.009).
A linear mixed effects model was used in R, lme in the nlme package, for estimating treatment effects on cytokine production in LPS stimulated THP-1 cells. The fixed effects fit were treatment, FA concentration, and when significant LPS concentration was fit as a covariate, the plate cells were cultured on nested within run was fit as a random effect. Least squares means were analyzed as outlined above and pairwise comparisons were made between treatments for FA concentration, or where significant LPS concentration.
The objective of this study was to determine if docosapentaenoic acid n-3 (DPAn3) enrichment of macrophages (MΦ) changed their inflammatory response relative to saturated (S), mono-unsaturated (MU), and other poly-unsaturated (PU) fatty acids (FA). Differentiated THP-1 cells were incubated with one of 11 FA (50 and 100 μM) of varying degrees of unsaturation or no FA for 24 h prior to 24 h of stimulation with lipopolysaccharide from E. coli. Fatty acids were collected from MΦ without stimulation to determine the fatty acid profiles. Media was collected from MΦ post-stimulation and probed for prostaglandin E2, and cytokines, including tumor necrosis factor-α, monocyte chemoattractant protein-1, and interleukin-6. Prostaglandin E2 production was greater (P<0.05) for AA than all other FA, and omega-3 PUFA decreased (P<0.01) PGE2 compared to n6 PUFA and all other FA.

[2] = system: murine peritoneal macrophages; settings: cited from earlier work
[3] = system: THP-1 cells; test: Prostaglandin E2 production by LPS-stimulated THP-1 macrophages after fatty acid incubation; format: cell-based; settings: fatty acid 50 and 100 μM 24 h, then LPS 24 h
Procedure: as §1, §2
The objective of this study was to determine if docosapentaenoic acid n-3 (DPAn3) enrichment of macrophages (MΦ) changed their inflammatory response relative to saturated (S), mono-unsaturated (MU), and other poly-unsaturated (PU) fatty acids (FA). […]

[4] = system: LDLr−/− mice; test: TNF-α concentration in adipose tissue of mice fed different omega-3 products; settings: mouse, in vivo
Excerpt: (§3) 48 male LDLr−/− mice (8-10 weeks of age, ˜20 g) were obtained from Jackson Laboratories (stock #2207) and allowed to acclimate to the cages, room, and feeding design for 12 days. After the acclimation period mice were weighed and randomly assigned to one of six treatments. Mice were fed an isolipid (20% total fatty acids w/w), isonitrogenous, and 0.2% cholesterol (w/w) diet, which is considered atherogenic (Ain76, 58TQ TestDiet®) as a base diet. This base diet was formulated to meet or exceed all nutrient and energy requirements for a growing mouse. The treatments were added to the base diet (0.76% w/w of the total diet) and was made once at the beginning of the study, separated into weekly aliquots, stored at −80° C., allowed to thaw at 4° C. for 2 days prior to feeding, and stored at 4° C. until fed. A sample from each weekly aliquot was collected, composited, and archived for fatty acid analysis at a later date. The treatments were as follows: (1) Negative control diet, 3.5% of the total fatty acids were replaced with milk fat (the only source of fat in the base diet), (2) 3.5% of the total fatty acids were replaced with purified ethyl esters of DHA, (3) 3.5% of the total fatty acids were replaced with purified ethyl esters of DPAn3, (4) 3.5% of the total fatty acids were replaced with purified ethyl esters of EPA, (5) 3.5% of the total fatty acids were replaced with omega-3 fatty acids from Lovaza® (GlaxoSmithKline), and (6) 3.5% of the total fatty acids were replaced with omega-3 fatty acids from ΩmegaActiv® DPA 5000 (Omega Protein Inc., Houston, Tex.; Table 1).
TNF-α concentration in adipose tissue of mice fed with different omega-3 products

[5] = system: LDLr−/− mice; test: Fluorescence intensity of inflammatory markers in brain hippocampus of mice; format: in vivo, mouse; settings: relative to control = 1
Excerpt: as §3
(§4) The objectives of these studies were to compare the effects of replacing 3.5% of the total fatty acids with DPAn3, EPA, DHA, and commercial combinations of EPA, DPAn3, and DHA on serum lipid profiles, brain inflammation, and the development of atherosclerosis in LDLr−/− mice fed an atherogenic diet for 20 weeks and [2] to determine if DPAn3 enrichment of macrophages (50 and 100 μM) changed their lipopolysaccharide stimulated inflammatory profile relative to saturated (S), mono-unsaturated (MU), and other omega-6 and omega-3 poly-unsaturated (PU) fatty acids (FA).

[6] = system: LDLr−/− mice; test: Fluorescence intensity of inflammatory markers in brain microvessel (cerebrovasculature) of mice; format: in vivo, mouse; settings: relative to control = 1.00
Excerpt: as §3, §4
Flourescence intensity (relative) of brain microvessel

Structure (SMILES) | Release of cytokines (TNF-α, MCP-1, IL-6) by THP-1 macrophages compared to control macrophages [1] | Release of cytokines by THP-1 macrophages at increasing fatty acid concentration [1] | TNF-α Concentration in adipose tissue [4] | IL-8 fluorescence intensity (relative) of brain hippocampus [5] | TIMP2 fluorescence intensity (relative) of brain hippocampus [5] | TNF-α fluorescence intensity (relative) of brain hippocampus [5] | IL-8 fluorescence intensity (relative) of brain microvessel [6] | MCP-1 fluorescence intensity (relative) of brain microvessel [6] | further results
CCCCC/C=C\C/C=C\C/C=C\C/C=C\CCCC(=O)O [AA, Arachidonic acid] | most potent inhibitor of cytokine release followed by AA | – | – | – | – | – | – | – | Release of cytokines (TNF-α, MCP-1, IL-6) by THP-1 macrophages compared to control macrophages ([1]; listed as Arachidonic acid): decreased cytokine expression, but not to the extent of EPA supplementation; TNF-α production ([2]; AA at 2-5 μM, increasing LPS concentrations): completely inhibited; TNF-α production ([2]; AA at concentrations as low as 1 μM): decreased TNF-α production; Prostaglandin E2 production by THP-1 macrophages [3]: greater; also recorded: increased greatly
CCCCCCCC/C=C\CCCCCCCC(=O)O [oleic acid] | did not change the amount of cytokines released; also recorded: did not change inflammatory cytokine release | did not change, or increased the amount of cytokines released | – | – | – | – | – | – | –
CC/C=C\C/C=C\C/C=C\C/C=C\C/C=C\C/C=C\CCC(=O)O [DHA, docosahexaenoic acid] | – | – | 0.82 pg/μg protein | 0.46 | 0.23 | 0.29 | 0.86 | 0.93 | –
CC/C=C\C/C=C\C/C=C\C/C=C\C/C=C\CCCC(=O)O [EPA, eicosapentaenoic acid] | – | – | 0.58 pg/μg protein | 0.72 | 0.63 | 0.31 | 0.93 | 0.96 | –
CCCCCCCCCCCCCCCC(=O)O [C16:0] | did not change the amount of cytokines released | did not change, or increased the amount of cytokines released | – | – | – | – | – | – | –
CCCCCCCCCCCCCCCCCC(=O)O [C18:0] | did not change the amount of cytokines released | did not change, or increased the amount of cytokines released | – | – | – | – | – | – | –
CC/C=C\C/C=C\C/C=C\C/C=C\C/C=C\CCCCCC(=O)O [DPA, docosapentaenoic acid] | – | – | 0.41 pg/μg protein | 0.70 | 0.17 | 0.28 | 0.96 | 0.92 | –
